Earlier results in US11053214B2, “Compositions and methods related to pyridinoylpiperidine 5-HT1F agonists” (COLUCID PHARMACEUTICALS, INC., priority 2016, dated 2021).

What was measured:
rabbit saphenous vein = conditions: concentrations up to 0.1 mM
[1] = tested on: other 5-HT1 receptor subtypes
migraine = conditions: early clinical proof-of-concept study

SMILES | constriction of rabbit saphenous vein (rabbit saphenous vein) | affinity higher for 5-HT1F receptors than for other 5-HT1 receptor subtypes [1] | efficacy in the acute treatment of migraine (migraine)
CN1CCC(C(=O)c2cccc(NC(=O)c3c(F)cc(F)cc3F)n2)CC1.O=C(O)CCC(=O)O [Compound I, hemisuccinate salt of 2,4,6-trifluoro-N-[6-(1-methyl-piperidine-4-carbonyl)-pyridin-2-yl]-benzamide] | did not constrict | more than 450 fold | 
CN1CCC(c2c[nH]c3ccc(NC(=O)c4ccc(F)cc4)cc23)CC1 [LY334370] |  |  | proved effective
